Measurements from the supplement of paper PMC10307832.

Key:
Assay in all cases: relative viability (nuclei count vs DMSO), 5 days (fraction); higher = more cells survive
ABC-1 = test system: ABC-1
Procedure, shortened: (§1)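 Lung cancer cell lines, seeded in 1536-well plates, were treated the following day by pin tool with a single drug or with five library-drug doses (not always all listed) in √10 steps on top of a fixed anchor-drug dose. Cells were fixed and nuclei stained in one step after 5 days, and nuclei were counted. Relative viability is the nuclei count for treated wells divided by that for vehicle wells, reported as medians of duplicate plates.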

CAL-12T = test system: CAL-12T
Procedure, shortened: as §1

COR-L 105 = test system: COR-L 105
Procedure, shortened: as §1

ChaGo-K-1 = test system: ChaGo-K-1
Procedure, shortened: as §1

EMC-BAC-2 = test system: EMC-BAC-2
Procedure, shortened: as §1

EPLC-272H = test system: EPLC-272H
Procedure, shortened: as §1

HCC-15 = test system: HCC-15
Procedure, shortened: as §1

HCC-78 = test system: HCC-78
Procedure, shortened: as §1

HOP-62 = test system: HOP-62
Procedure, shortened: as §1

LXF-289 = test system: LXF-289
Procedure, shortened: as §1

NCI-H1666 = test system: NCI-H1666
Procedure, shortened: as §1

NCI-H1755 = test system: NCI-H1755
Procedure, shortened: as §1

NCI-H1915 = test system: NCI-H1915
Procedure, shortened: as §1

NCI-H1975 = test system: NCI-H1975
Procedure, shortened: as §1

NCI-H2023 = test system: NCI-H2023
Procedure, shortened: as §1

NCI-H2085 = test system: NCI-H2085
Procedure, shortened: as §1

NCI-H2126 = test system: NCI-H2126
Procedure, shortened: as §1

NCI-H3122 = test system: NCI-H3122
Procedure, shortened: as §1

NCI-H322M = test system: NCI-H322M
Procedure, shortened: as §1

NCI-H358 = test system: NCI-H358
Procedure, shortened: as §1

NCI-H441 = test system: NCI-H441
Procedure, shortened: as §1

UMC-11 = test system: UMC-11
Procedure, shortened: as §1

## COc1cc2nccc(Oc3ccc(NC(=O)Nc4cc(C)on4)c(Cl)c3)c2cc1OC [Tivozanib] + Cc1nc(Nc2ncc(C(=O)Nc3c(C)cccc3Cl)s2)cc(N2CCN(CCO)CC2)n1 [Dasatinib] (partner 0.075 µM)
ABC-1; first compound 0.005 µM
  relative viability: 0.649
ABC-1; first compound 0.01581 µM
  relative viability: 0.583
ABC-1; first compound 0.05 µM
  relative viability: 0.729
ABC-1; first compound 0.1581 µM
  relative viability: 0.489
ABC-1; first compound 0.5 µM
  relative viability: 0.323
CAL-12T; first compound 0.005 µM
  relative viability: 0.402
CAL-12T; first compound 0.01581 µM
  relative viability: 0.527
CAL-12T; first compound 0.05 µM
  relative viability: 0.481
CAL-12T; first compound 0.1581 µM
  relative viability: 0.343
CAL-12T; first compound 0.5 µM
  relative viability: 0.285
COR-L 105; first compound 0.005 µM
  relative viability: 0.34
COR-L 105; first compound 0.01581 µM
  relative viability: 0.361
COR-L 105; first compound 0.05 µM
  relative viability: 0.467
COR-L 105; first compound 0.1581 µM
  relative viability: 0.269
COR-L 105; first compound 0.5 µM
  relative viability: 0.354
ChaGo-K-1; first compound 0.005 µM
  relative viability: 0.543
ChaGo-K-1; first compound 0.01581 µM
  relative viability: 0.61
ChaGo-K-1; first compound 0.05 µM
  relative viability: 0.626
ChaGo-K-1; first compound 0.1581 µM
  relative viability: 0.602
ChaGo-K-1; first compound 0.5 µM
  relative viability: 0.581
EMC-BAC-2; first compound 0.005 µM
  relative viability: 0.313
EMC-BAC-2; first compound 0.01581 µM
  relative viability: 0.314
EMC-BAC-2; first compound 0.05 µM
  relative viability: 0.313
EMC-BAC-2; first compound 0.1581 µM
  relative viability: 0.273
EMC-BAC-2; first compound 0.5 µM
  relative viability: 0.237
EPLC-272H; first compound 0.005 µM
  relative viability: 0.378
EPLC-272H; first compound 0.01581 µM
  relative viability: 0.375
EPLC-272H; first compound 0.05 µM
  relative viability: 0.447
EPLC-272H; first compound 0.1581 µM
  relative viability: 0.263
EPLC-272H; first compound 0.5 µM
  relative viability: 0.413
HCC-15; first compound 0.005 µM
  relative viability: 0.534
HCC-15; first compound 0.01581 µM
  relative viability: 0.579
HCC-15; first compound 0.05 µM
  relative viability: 0.621
HCC-15; first compound 0.1581 µM
  relative viability: 0.67
HCC-15; first compound 0.5 µM
  relative viability: 0.607
HCC-78; first compound 0.005 µM
  relative viability: 0.365
HCC-78; first compound 0.01581 µM
  relative viability: 0.387
HCC-78; first compound 0.05 µM
  relative viability: 0.466
HCC-78; first compound 0.1581 µM
  relative viability: 0.263
HCC-78; first compound 0.5 µM
  relative viability: 0.362
HOP-62; first compound 0.005 µM
  relative viability: 0.638
HOP-62; first compound 0.01581 µM
  relative viability: 0.668
HOP-62; first compound 0.05 µM
  relative viability: 0.633
HOP-62; first compound 0.1581 µM
  relative viability: 0.583
HOP-62; first compound 0.5 µM
  relative viability: 0.698
LXF-289; first compound 0.005 µM
  relative viability: 0.214
LXF-289; first compound 0.01581 µM
  relative viability: 0.203
LXF-289; first compound 0.05 µM
  relative viability: 0.279
LXF-289; first compound 0.1581 µM
  relative viability: 0.264
LXF-289; first compound 0.5 µM
  relative viability: 0.216
NCI-H1666; first compound 0.005 µM
  relative viability: 0.785
NCI-H1666; first compound 0.01581 µM
  relative viability: 0.831
NCI-H1666; first compound 0.05 µM
  relative viability: 0.801
NCI-H1666; first compound 0.1581 µM
  relative viability: 0.819
NCI-H1666; first compound 0.5 µM
  relative viability: 0.825
NCI-H1755; first compound 0.005 µM
  relative viability: 0.356
NCI-H1755; first compound 0.01581 µM
  relative viability: 0.415
NCI-H1755; first compound 0.05 µM
  relative viability: 0.432
NCI-H1755; first compound 0.1581 µM
  relative viability: 0.315
NCI-H1755; first compound 0.5 µM
  relative viability: 0.383
NCI-H1915; first compound 0.005 µM
  relative viability: 0.279
NCI-H1915; first compound 0.01581 µM
  relative viability: 0.3
NCI-H1915; first compound 0.05 µM
  relative viability: 0.3
NCI-H1915; first compound 0.1581 µM
  relative viability: 0.289
NCI-H1915; first compound 0.5 µM
  relative viability: 0.272
NCI-H1975; first compound 0.005 µM
  relative viability: 0.381
NCI-H1975; first compound 0.01581 µM
  relative viability: 0.367
NCI-H1975; first compound 0.05 µM
  relative viability: 0.417
NCI-H1975; first compound 0.1581 µM
  relative viability: 0.278
NCI-H1975; first compound 0.5 µM
  relative viability: 0.315
NCI-H2023; first compound 0.005 µM
  relative viability: 0.515
NCI-H2023; first compound 0.01581 µM
  relative viability: 0.577
NCI-H2023; first compound 0.05 µM
  relative viability: 0.55
NCI-H2023; first compound 0.1581 µM
  relative viability: 0.561
NCI-H2023; first compound 0.5 µM
  relative viability: 0.523
NCI-H2085; first compound 0.005 µM
  relative viability: 0.226
NCI-H2085; first compound 0.01581 µM
  relative viability: 0.207
NCI-H2085; first compound 0.05 µM
  relative viability: 0.233
NCI-H2085; first compound 0.1581 µM
  relative viability: 0.315
NCI-H2085; first compound 0.5 µM
  relative viability: 0.224
NCI-H2126; first compound 0.005 µM
  relative viability: 0.499
NCI-H2126; first compound 0.01581 µM
  relative viability: 0.567
NCI-H2126; first compound 0.05 µM
  relative viability: 0.636
NCI-H2126; first compound 0.1581 µM
  relative viability: 0.412
NCI-H2126; first compound 0.5 µM
  relative viability: 0.494
NCI-H3122; first compound 0.005 µM
  relative viability: 0.986
NCI-H3122; first compound 0.01581 µM
  relative viability: 0.821
NCI-H3122; first compound 0.05 µM
  relative viability: 0.754
NCI-H3122; first compound 0.1581 µM
  relative viability: 0.604
NCI-H3122; first compound 0.5 µM
  relative viability: 0.887
NCI-H322M; first compound 0.005 µM
  relative viability: 0.26
NCI-H322M; first compound 0.01581 µM
  relative viability: 0.241
NCI-H322M; first compound 0.05 µM
  relative viability: 0.272
NCI-H322M; first compound 0.1581 µM
  relative viability: 0.249
NCI-H322M; first compound 0.5 µM
  relative viability: 0.254
NCI-H358; first compound 0.005 µM
  relative viability: 0.136
NCI-H358; first compound 0.01581 µM
  relative viability: 0.165
NCI-H358; first compound 0.05 µM
  relative viability: 0.174
NCI-H358; first compound 0.1581 µM
  relative viability: 0.141
NCI-H358; first compound 0.5 µM
  relative viability: 0.184
NCI-H441; first compound 0.005 µM
  relative viability: 0.642
NCI-H441; first compound 0.01581 µM
  relative viability: 0.584
NCI-H441; first compound 0.05 µM
  relative viability: 0.498
NCI-H441; first compound 0.1581 µM
  relative viability: 0.625
NCI-H441; first compound 0.5 µM
  relative viability: 0.394
UMC-11; first compound 0.005 µM
  relative viability: 0.416
UMC-11; first compound 0.01581 µM
  relative viability: 0.46
UMC-11; first compound 0.05 µM
  relative viability: 0.465
UMC-11; first compound 0.5 µM
  relative viability: 0.38
